We go through five compounds from PMC11345829, “Discovery of Potent Isoquinolinequinone N-Oxides to Overcome Cancer Multidrug Resistance” (Journal of Medicinal Chemistry, 2024).

Where two headings read alike, the source gives them in different places. Where only a bound is given, the exact number is not on record here.

For assay [1], the system named is NCI-H460. Put plainly: NCI60 five-dose GI50 (NCI data). In kind it is cell-based. To be noted: Homo sapiens, NCI data provided for comparison, read-out: NSCLC NCI-H460 GI50 (NCI). From the text: (§1) The concentration−response curve generated enables the determination of three criteria, GI50 (drug concentration at which 50% of cell growth is inhibited), total growth inhibition (TGI) and LC50 (drug concentration at which 50% of tumor cells are killed) which can be used to compare effectiveness against any compound tested in the screen since its inception.
(§2) S2.1 NCI Screening Assay Experimental details
(§3) NCI Screening Assay Experimental: Cancer cell growth assays (NCI60 screening) 5,6 One-dose study: Tested compounds were initially solubilised in DMSO, diluted into RPMI 1640 and 5% fetal bovine serum/L-glutamine, and added to 96-well plates containing cell lines previously cultured for 24 h. After 48 h incubation, the media were removed, and the cells were fixed and stained with sulforhodamine B to determine overall percent growth/ total protein content. Unbound dye was removed with five washes of 1% acetic acid, and the plates were allowed to air dry. The dye was then resolubilised in Tris buffer, and the colorimetric absorbance was measured (515 nm). Growth inhibition was measured relative to the response generated from proliferating cells cultured under identical conditions for 48 h. Data from one-dose experiments pertains to the percentage growth at […]
(§4) Five-dose study: Serial 5 × 10-fold dilution from an initial DMSO stock solution was performed, prior to incubation at each individual concentration (10 nM, 100 nM, 1 μM, 10 μM and 100 μM). Using seven absorbance measurements (time zero (Tz), control growth (C), and test growth in the presence of drug at the five concentration levels (Ti)), the percentage growth was calculated at each of the drug concentrations levels. Percentage growth inhibition was calculated as: [(Ti − Tz)/(C − Tz)] × 100 for concentrations for which Ti ≥ Tz, [(Ti − Tz)/Tz] × 100 for concentrations for which Ti < Tz. Three dose response parameters were calculated for each experimental agent. […]
(§5) was calculated from [(Ti − Tz)/(C − Tz)] × 100 = 50, which is the drug concentration resulting in a 50% reduction in the net protein increase (as measured by sulforhodamine B staining) in control cells during the drug incubation. The drug concentration resulting in total growth inhibition (TGI) was calculated from Ti = Tz. The LC50 (concentration of drug resulting in a 50% reduction in the measured protein at the end of the drug treatment as compared to that at the beginning) indicating a net loss of cells following treatment was calculated from [(Ti − Tz)/Tz] × 100 = −50. Values were calculated for each of these three parameters if the level of activity was reached; however, if the effect was not reached or was exceeded, the value for that parameter was expressed as greater or less than the maximum or minimum concentration tested.

The subject of assay [2] is DLD1. The assay can be described thus: SRB cell growth inhibition assay. It is filed as cell-based. The settings on record: Homo sapiens, DLD-1, 48 h, colorectal cancer sensitive, mean ± SEM. From the text:
(§6) Taking into consideration the promising results of preliminary NCI screening, nine compounds (1, 2, 3, 4, 5, 20, 23, 24, 25) were selected for further screening in two counterpart pairs of sensitive and MDR cell lines. […] Two distinct pairs of counterpart drug-sensitive and MDR human tumor cell lines were used, namely the non-small lung cancer (NSCLC) NCI-H460 (same cell line as in the NCI screen) and its MDR counterpart cell line NCI-H460/R and the colorectal cancer DLD1 and its MDR counterpart cell line DLD1-TxR (Table 3). The screening was performed using the SRB assay, and the GI50 for each compound was determined by interpolation on the attained concentration−response curves and compared with NCI60 screening data (SI, Figures S62−S63; Table S21).
(§7) Two pairs of drug-sensitive and multidrug-resistant (MDR) cell lines from human nonsmall cell lung cancer (NSCLC), NCI-H460 and NCI-H460/R, and colorectal cancer, DLD1 and DLD1-TxR, kindly provided by Dr M. Pešić (Belgrade, Serbia), were used to evaluate the growth inhibition potential of the compounds 1, 2, 3, 4, 5, 20, 23, 24, an 25.[76],[77] Additionally, growth inhibition assays were performed with compound 25 on two other NSCLC cell lines, A549 and NCI-H322, obtained from the American Type Culture Collection (ATCC) and the European Collection of Authenticated Cell Cultures, respectively. The A549 cell line was maintained in Dulbecco’s Modified Eagle Medium (DMEM) supplemented with 4.5 g/L Glucose with UltraGlutamine with sodium pyruvate (Lonza, Basel Stücki, Switzerland), enriched with 10% fetal bovine serum (FBS; Biowest, Nuaillé, France). The lung fibroblast MRC-5 cell line and the remaining NSCLC and colorectal cancer cell lines were cultured in Roswell Park Memorial Institute (RPMI) 1640 (with stable glutamine and 25 mM HEPES) medium (Biowest), supplemented with 10% fetal bovine serum. […] For the sulforhodamine B (SRB) and 3D cell culture assays, the media were supplemented with 5% FBS. The remaining experiments were performed with medium supplemented with 10% FBS.
(§8) Cells were seeded at a previously determined optimal cell concentration (5.0 × 10^4 cells/mL for NSCLC cells and the nontumorigenic MRC-5 cell line and 1.0 × 10^5 cells/mL for colorectal cancer cells) and incubated at 37 °C for 24 h. […] The SRB assay was performed as previously described.[78],[79] Briefly, after fixing cells with 10% (w/v) ice-cold trichloroacetic acid (Merck Life Science), the proteins were stained with 0.4% of SRB (Merck Life Science) in acetic acid (Merck Life Science). Following washing steps in acetic acid, the bound dye was solubilized with 10 mM Tris base solution (Merck Life Science). Absorbance was measured at 510 nm in a multiplate reader (Synergy Mx, Biotek Instruments Inc., Winooski, Vermont, USA) using the Gen5 software (Biotek Instruments Inc.).

The test system of assay [3] is NCI-H460. The assay can be described thus: SRB cell growth inhibition assay. To be noted: Homo sapiens, 48 h, NSCLC sensitive, mean ± SEM. It is filed as cell-based.
Text: as §6, §7, §8

In assay [4] the test system is NCI-H460/R. The assay can be described thus: SRB cell growth inhibition assay. In kind it is cell-based, human. How it is done: Two distinct pairs of counterpart drug-sensitive and MDR human tumor cell lines were used, namely the non-small lung cancer (NSCLC) NCI-H460 (same cell line as in the NCI screen) and its MDR counterpart cell line NCI-[…] and the colorectal cancer DLD1 and its MDR counterpart cell line DLD1-TxR (Table 3). The screening was performed using the SRB assay, and the GI50 for each compound was determined by interpolation on the attained concentration-response curves and compared with NCI60 screening data (SI, Figures S62-S63; Table S21). Two pairs of drug-sensitive and multidrug-resistant (MDR) cell lines from human nonsmall cell lung cancer (NSCLC), NCI-H460 and NCI-[…], and colorectal cancer, DLD1 and DLD1-TxR, kindly provided by Dr M. […] The A549 cell line was maintained in Dulbecco's Modified Eagle Medium (DMEM) supplemented with 4.5 g/L Glucose with UltraGlutamine with sodium pyruvate (Lonza, Basel Stücki, Switzerland), enriched with 10% fetal bovine serum (FBS; Biowest, Nuaillé, France). […] For the sulforhodamine B (SRB) and 3D cell culture assays, the media were supplemented with 5% FBS. The remaining experiments were performed with medium supplemented with 10% FBS. […] The SRB assay was performed as previously described.[78],[79] Briefly, after fixing cells with 10% (w/v) ice-cold trichloroacetic acid (Merck Life Science), the proteins were stained with 0.4% of SRB (Merck Life Science) in acetic acid (Merck Life Science). Following washing steps in acetic acid, the bound dye was solubilized with 10 mM Tris base solution (Merck Life Science). Absorbance was measured at 510 nm in a multiplate reader (Synergy Mx, Biotek Instruments Inc., Winooski, Vermont, USA) using the Gen5 software (Biotek Instruments Inc.).

Assay [5] concerns DLD1-TxR. Put plainly: SRB cell growth inhibition assay. In kind it is cell-based, human. The settings on record: for GI50: Homo sapiens, SRB assay, 48 h, colorectal cancer MDR, mean ± SEM. On the procedure:
Two distinct pairs of counterpart drug-sensitive and MDR human tumor cell lines were used, namely the non-small lung cancer (NSCLC) NCI-H460 (same cell line as in the NCI screen) and its MDR counterpart cell line NCI-H460/R and the colorectal cancer DLD1 and its MDR counterpart cell line DLD1-TxR (Table 3). The screening was performed using the SRB assay, and the GI50 for each compound was determined by interpolation on the attained concentration−response curves and compared with NCI60 screening data (SI, Figures S62−S63; Table S21).
as §7, §8
(In SRB staining, fixed cells bind dye roughly in proportion to their protein.)

Assay [6] relates to NCI60 tumor cell line panel. Further details: method as in PMID 31894828. The settings on record: against 53 human tumor cell lines; cited from earlier work.
Assay [7] has as its system NCI60 tumor cell line panel. Put plainly: NCI60 one-dose screen (10 μM), mean growth. The settings on record: 48 h, one dose 10 μM, mean cell growth of 60 tumor cell lines; for activity at 10 µM: Homo sapiens. It is filed as cell-based, human. On the procedure:
as §2
as §3, with “h.” for “h. Data from one-dose experiments pertains to the percentage growth at”

For assay [8], the system named is NCI60 tumor cell line panel. The assay can be described thus: NCI60 five-dose screen, mean over panel. It is filed as cell-based, human. The settings on record: five dose.
Text: as §1, §2, §3, §4, §5

The test system of assay [9] is COLO-205. The assay can be described thus: NCI60 five-dose GI50. In kind it is cell-based. The settings on record: Homo sapiens, colon.
Text: as §1, §2, §3, §4, §5

In assay [10] the test system is K-562. Put plainly: NCI60 five-dose GI50. The settings on record: Homo sapiens, K562, five dose. It is filed as cell-based.
Text: as §1, §2, §3, §4, §5

In assay [11] the test system is LOX-IMVI. The assay can be described thus: NCI60 five-dose GI50. It is filed as cell-based. The settings on record: Homo sapiens, melanoma.
Text: as §1, §2, §3, §4, §5

Assay [12] relates to MCF-7. Put plainly: NCI60 five-dose GI50. In kind it is cell-based. To be noted: Homo sapiens, MCF7, breast.
Text: as §1, §2, §3, §4, §5

For assay [13], the system named is NCI-ADR/RES. The assay can be described thus: NCI60 five-dose GI50. It is filed as cell-based. The settings on record: Homo sapiens, MDR ovarian.
Text: as §1, §2, §3, §4, §5

The subject of assay [14] is OVCAR-3. The assay can be described thus: NCI60 five-dose GI50. In kind it is cell-based. To be noted: Homo sapiens, ovarian.
Text: as §1, §2, §3, §4, §5

Assay [15] has as its system UACC-62. Put plainly: NCI60 five-dose GI50. The settings on record: Homo sapiens, melanoma. In kind it is cell-based.
Text: as §1, §2, §3, §4, §5

The test system of assay [16] is OVCAR-8. The assay can be described thus: NCI60 five-dose GI50. In kind it is cell-based. The settings on record: Homo sapiens, ovarian.
Text: as §1, §2
as §3, with “nm).” for “nm). Growth inhibition was measured relative to the response generated from proliferating cells cultured under identical conditions for 48 h. Data from one-dose experiments pertains to the percentage growth at”
as §4, §5

Assay [17] has as its system NCI-H460/R spheroids. The assay can be described thus: Cell Titer-Glo 3D spheroid viability assay. It is filed as cell-based, human. To be noted: 48 h; 25 at 0.35 and 0.7 μM; etoposide 2 μM.
Description: Results are presented as the % of luciferase luminescence relative to the “blank” cells (medium).
Spheroid formation was conducted in 12-series agarose 3D Petri Dish micromolds (MicroTissues Technology, MicroTissues Inc., Sigma-Aldrich). The agarose micromolds were prepared using 1% agarose in a 0.9% NaCl solution and then placed in 12-well plates and equilibrated with RPMI supplemented with 10% FBS for at least 2 h before cell seeding. Cell suspensions corresponding to 500 cells per spheroid of the NSCLC cell lines (NCI-H460 and NCI-H460/R), and 1000 cells per spheroid of the colorectal cancer cell lines (DLD1 and DLD1-TxR) were seeded in the corresponding micromolds. […] Spheroid formation was monitored with the Leica DMi1 microscope. […] At the end of the treatment, images from at least 8 different spheroids per condition were captured on the Leica Dmi1 microscope, and posteriorly analyzed with the automated open-source software AnaSP.[82] Spheroid parameters, such as equivalent diameter, circularity, and compactness, were calculated.
Spheroid viability was determined through the luminescence-based Cell Titer-Glo 3D cell viability assay (Promega). […] The plate was then incubated in the dark for 5 min with agitation and allowed to rest for 25 min before luminescence measurement. Luminescence was quantified using the microplate reader Synergy MX coupled with the GEN5 software. […]
Where [18] appears, read: Homo sapiens, across 57-60 cell lines (number given per compound), read-out: Mean of GI50 as Log 10 Concentration (SD) (converted).
Setting [19] is: mean over 52 human tumor cell lines common to all analogues, read-out: mean GI50.

As for `COC(=O)c1c2c(c(C)[n+]([O-])c1C)C(=O)C=CC2=O` [Compound 3], the GI50 in [1] was 731 nM; in assay [2], 6620 ± 350 nM; in assay [3], 8430 ± 1410 nM; in assay [4] (Homo sapiens, NCI-H460, SRB assay, 48 h, NSCLC MDR, mean ± SEM) it was 4280 ± 1080 nM; in assay [5] it was 4800 ± 70 nM; in assay [6], 1750 nM. For the same compound, the “selectivity ratio NSCLC” value in [4] (GI50 sensitive NCI-H460 / GI50 MDR NCI-H460/R) was determined as 2. Further, the “selectivity ratio colorectal cancer” value in assay [5] (GI50 sensitive DLD1 / GI50 MDR DLD1-TxR) is reported as 1.4.
For `COC(=O)c1c2c(c(C)[n+]([O-])c1C)C(=O)C(NCc1ccc(F)c(Cl)c1)=CC2=O` [Compound 18], the activity at 10 µM in assay [7] worked out at 4%. For the same compound, the GI50 was 1800 nM in assay [8] (setting [18]); 1510 nM in assay [8] (setting [19]); 588 nM in assay [9]; 2670 nM in assay [10] (leukemia); 2340 nM in [11]; 1320 nM in [12]. Also, the GI50 in assay [13] is 2080 nM; in assay [14], 306 nM; in [15], 1380 nM; in [16], 2380 nM.
As for `COC(=O)c1c2c(c(C)[n+]([O-])c1C)C(=O)C=C(NCc1ccc(F)c(Cl)c1)C2=O` [Compound 19], the activity at 10 µM in assay [7] is -47%. Further, the “mean growth (%, 10 μM)” value in assay [7] is -47%. In addition, the GI50 in assay [8] (setting [18]) was 290 nM; in [8] (setting [19]), 560 nM; in assay [9], 211 nM; in assay [10], below 150 nM; in [10] (leukemia), 51 nM; in [11], 31 nM. For the same compound, the GI50 in assay [12] was determined as 229 nM; in [13], 321 nM; in assay [14], 199 nM; in assay [15], 41 nM; in [16], 249 nM.
As to `COc1cc([C@@H]2c3cc4c(cc3[C@@H](O[C@@H]3O[C@@H]5CO[C@@H](C)O[C@H]5[C@H](O)[C@H]3O)[C@H]3COC(=O)[C@H]23)OCO4)cc(OC)c1O` [etoposide, reference compound], the “viability of NCI-H460/R spheroids” value in [17] is “did not significantly affect the viability of the spheroids”.
On to `CC(=O)O[C@H]1C(=O)[C@@]2(C)[C@H]([C@H](OC(=O)c3ccccc3)[C@]3(O)C[C@H](OC(=O)[C@H](O)[C@@H](NC(=O)c4ccccc4)c4ccccc4)C(C)=C1C3(C)C)[C@]1(OC(C)=O)CO[C@@H]1C[C@@H]2O` [paclitaxel, reference compound], for which the figures for the GI50 in assay [2] and in assay [5] were 20 ± 3 nM and 970 ± 210 nM, respectively.
